Test results as given in US20240197596A1, “COMPOUNDS USEFUL AS HAIR DYES” (National University of Singapore, priority 2021, published 2024).
“And” between values parts separate entries of the source, which are not always exact repeats. Identical values can stand only once. “Also recorded” adds a separate entry of the source.

Columns and labels:
[1] = Skin permeation study, Franz diffusion cell; type: in vitro ADME, porcine; conditions: for Cumulative amount at 8th hour: 1% w/v in deionized water; for Cumulative amount at 8th hour / Cumulative amount comparison of PPD vs derivatives (times less than PPD) / Permeated through skin into receptor / Recovered in donor compartment / Recovered in skin / Recovered in skin outside diffusion area / Recovered in skin swabs / Recovered on parafilm and in washes: 8 h; for Permeated through skin into receptor / Recovered in donor compartment / Recovered in skin / Recovered in skin outside diffusion area / Recovered in skin swabs / Recovered on parafilm and in washes: mass balance; for recovery at 8 h, 1 % w/v: pig, end of 8 h, read-out: Total recovery (mean percentage parent compound recovery)
Procedure: In each Franz cell, a piece of pig ear skin prepared to a thickness of […] was clamped securely. 5 mL of PBS solution was added to the receiver compartment which was purged of air bubbles to ensure maximal contact of the skin piece with the solution. Donor solution was prepared by dissolving N1-N13 in deionized water at 1% w/v, and 900 μL was added to the donor compartment. The study was conducted for 8 h, and aliquots of 200 μL were removed from the receiver solution and topped up with fresh PBS at each timepoint of 15-minutes intervals for the first hour and every hour after that.
For mass balance, at the end of 8 h, skin pieces and swabs of the top and bottom surface of the skin were collected and stored in ACN for N1-N13 extraction. Donor solution and receiver solution were also collected.
The aliquot samples collected were subjected to 2-step extraction using 750 μL of dichloromethane (DCM). […] The solvent was dried using the TurboVap, and then reconstituted with 198 μL of 0.1% formic acid in 50% methanol in water and spiked with 2 μL of ANP (internal standard). The processed aliquot samples and mass balance samples were then sent for analysis using LC-MS/MS. The compounds' steady state fluxes and permeability coefficients were then calculated by fitting the solution to Fick's […] of diffusion at the steady state (linear part) of each experimental cumulative amount curve.

IL-8 = IL-8 release assay (ELISA) in THP-1 cells; type: cell-based, human; conditions: CV75 dose, 24 h
Procedure: (§1) CV75 values (concentration showing 75% of THP-1 cell survival) were determined as per the procedure described above in section A of this method. The IL-8 and IL-1α release assay was performed as described in Toxicol In Vitro. 2003, 17(3), 311-321. A Chemokine immunosorbent assay Bio-legend ELISA Max kit was used to quantify the levels of available IL-8 and IL-1α protein. The supernatant media of untreated THP-1 cells was treated with standards, test samples N1-N13 and DMSO in 96 well plate and then was recovered after 24 h of culture. IL-8 and IL-1α was measured by ELISA in 96-well microtiter plates according to the manufacturer protocol (Biolegend, ELISA MAX™, Singapore).

THP-1 cells = assay: h-CLAT assay on THP-1 cells: markers against OECD cut-off, prediction, cell viability; type: cell-based, human; conditions: 8 doses based on CV75, 24 h
Procedure: The assay was conducted as per the literature (Toxicol In Vitro, 2006, 20, 767-73). THP-1 cells were cultured in 24-well plates (1×10^6 cells/1 mL/well) with various concentrations of each chemical (N1-N13), +ve control (DNCB), −ve control for 24 h.
THP-1 cells were cultured in 24-well plates (1×10^6 cells/mL/well) and treated with recommended concentrations of each chemical (N1-N13), positive control (DNCB) or negative control (SLS) for 24 h. THP-1 cells were cultured and treated with 8 doses of N1-N13 based on the CV75 namely, 1.2×CV75, 1×CV75, 1/1.2×CV75, 1/1.2^2×CV75, 1/1.23×CV75, 1/1.24×CV75, 1/1.2^5×CV75 and 1/1.2^6×CV75. After 24 h, cells were transferred to 1.5 mL of microtubes and centrifuged at 450 g, 5 min, 4° C. Supernatant was discarded and cells were washed with 1 mL of FACS buffer (PBS+FBS+HEPES). The cells were centrifuged at 450 g, 5 min, 4° C. 50 μL of Fc block (0.01% of Globlins Cohn fraction II, III) was added and incubated for 10 min at 4° C. The cells were stained with 20 μL APC CD54 (Mouse IgG1, K, BD Biosciences, San Diego, CA, USA), 20 μL FITC CD86 (Mouse IgG1, K, BD Biosciences, San Diego, CA, USA) or their respective isotype controls and incubated for 15 min at room temperature in dark. After incubation, the antibodies were diluted with 200 μl FACS buffer. The cells were washed with 1 mL FACS buffer twice. Further, 200 μL Propidium iodide (PI, 0.625 μg/mL) prepared in FACS buffer was added before the flow cytometry analysis. Flow cytometric analysis was performed with BD LSR Fortessa™ (Becton Dickinson, San Jose, CA, USA) In total, 10,000 living cells were analysed, and data were processed using Flowjo software (v10.6, Ashland, OR, USA). The test concentration providing a cell viability of 75% (CV75) was derived from the dose response curve and was calculated by log-linear interpolation.
Geometric mean fluorescence intensity (MFI) was measured for CD54^+ and CD86^+ cells separately and percentage relative fluorescence intensity (% RFI), reflective of CD86 and CD54 relative expression was calculated as described below. RFI was not calculated if cell viability fell below 50%.
All chemicals were tested in three independent experiments. If in two of three independent experiments at any dose exceeded 150% RFI for CD86, or 200% RFI for CD54, the chemicals could be identified as a sensitizer. Otherwise it is identified as a non-sensitizer.

[2] = system: cysteine heptapeptide (Ac-RFAACAA-COOH) and lysine heptapeptide (Ac-RFAAKAA-COOH); assay: Direct Peptide Reactivity Assay (DPRA); type: biochemical; conditions: from mean peptide depletion
Procedure: The assay was conducted on N1-N13 in triplicates with the respective solvent used to prepare compound stock solutions as control. A stock concentration of 20 mM was prepared instead of the recommended 100 mM by OECD due to scarcity of compounds. The various constituents of the incubation mixture were freshly prepared to prevent stability issues that could cause variations in results. An incubation mixture with the recommended peptide to test compound ratios of 1:10 for cysteine heptapeptide and 1:50 for lysine heptapeptide (OECD. Test No. 442C: In Chemico Skin Sensitisation 2020) was prepared then incubated at 25° C. for 24 h in a shaking incubator (Toxicol Sci. 2012; 129(2):421-31).
At 24 h, the incubation mixture was quenched with 75 μL of 95% ACN/H2O containing 200 μM Leucine Enkephalin (Internal Standard). For cysteine DPRA, 100 μL of quenched mixture was spiked into 90 μL of 2% ACN/H2O and 10 μL of freshly prepared 0.016 mM 1,4-Dithiothreitol (DTT) solution. DTT maintains the integrity of thiol groups by preventing the dimerization of thiol groups and degradation of di-adducts to mono-adducts. This second mixture was then incubated at 40° C. for 30 min in a shaking incubator. For lysine DPRA, 10 μL of quenched mixture was spiked into 190 μL of 2% ACN/H2O. All 200 μL of mixtures were transferred into a 96-well plate and sent for analysis with Liquid Chromatography-Tandem Mass Spectrometry (LC-MS/MS).

IL-1α = IL-1α release assay (ELISA) in THP-1 cells; type: cell-based, human; conditions: CV75 dose, 24 h
Procedure: as §1

COCCOc1cc(N)ccc1N [Compound N7, 2-(2-methoxyethoxy)benzene-1,4-diamine]
Cumulative amount at 8th hour [1]: 0.0080 μg/cm^2 and 0.008 μg/cm^2
Cumulative amount comparison of PPD vs derivatives (times less than PPD) [1]: 675.0
Permeated through skin into receptor [1]: <0.001 % of applied compound dose
Recovered in donor compartment [1]: 97.5 % of applied compound dose
Recovered in skin [1]: 0.03 % of applied compound dose
Recovered in skin outside diffusion area [1]: 0.007 % of applied compound dose
Recovered in skin swabs [1]: 0.09 % of applied compound dose
Recovered on parafilm and in washes [1]: 0.001 % of applied compound dose
recovery at 8 h, 1 % w/v [1]: 97 ± 1.49%
release of IL-8 (IL-8): slight elevation; also recorded: marginal release
CD54 and CD86 marker expression against OECD cut-off (THP-1 cells): failed to induce marker expression above the recommended % RFI cut-off
sensitizing potential (DPRA) [2]: moderate sensitization
release of IL-1α (IL-1α): slight elevation; also recorded: marginal release

CCC(=O)COc1cc(N)ccc1N [Compound N11, 1-(2,5-diaminophenoxy)butan-2-one]
Cumulative amount at 8th hour [1]: 0.00794 μg/cm^2
Cumulative amount comparison of PPD vs derivatives (times less than PPD) [1]: 680
Permeated through skin into receptor [1]: <0.001 % of applied compound dose
Recovered in donor compartment [1]: 93.7 % of applied compound dose
Recovered in skin [1]: 0.06 % of applied compound dose
Recovered in skin outside diffusion area [1]: 0.002 % of applied compound dose
Recovered in skin swabs [1]: 0.025 % of applied compound dose
Recovered on parafilm and in washes [1]: 0.005 % of applied compound dose
recovery at 8 h, 1 % w/v [1]: 93.8 ± 1.3%
CD54 and CD86 marker expression against OECD cut-off (THP-1 cells): did not express the markers at any tested dose level
sensitizing potential (DPRA) [2]: moderate sensitizers

C=C(C)Oc1cc(N)ccc1N [Compound N12, 2-(prop-1-en-2-yloxy)benzene-1,4-diamine]
Cumulative amount at 8th hour [1]: 0.0145 μg/cm^2 and 0.0144 μg/cm^2
Permeated through skin into receptor [1]: <0.001 % of applied compound dose
Recovered in donor compartment [1]: 96.0 % of applied compound dose
Recovered in skin [1]: 0.02 % of applied compound dose
Recovered in skin outside diffusion area [1]: 0.0045 % of applied compound dose
Recovered in skin swabs [1]: 0.05 % of applied compound dose
Recovered on parafilm and in washes [1]: 0.007 % of applied compound dose
recovery at 8 h, 1 % w/v [1]: 96.1 ± 1%
release of IL-8 (IL-8): slight elevation; also recorded: marginal release
CD54 and CD86 marker expression against OECD cut-off (THP-1 cells): failed to induce marker expression above the recommended % RFI cut-off
release of IL-1α (IL-1α): slight elevation; also recorded: marginal release

CNCCOc1cc(N)ccc1N [Compound N13, 2-(2-(methylamino)ethoxy)benzene-1,4-diamine]
Cumulative amount at 8th hour [1]: 0.0106 μg/cm^2
Permeated through skin into receptor [1]: <0.001 % of applied compound dose
Recovered in donor compartment [1]: 93.0 % of applied compound dose
Recovered in skin [1]: 0.03 % of applied compound dose
Recovered in skin outside diffusion area [1]: 0.003 % of applied compound dose
Recovered in skin swabs [1]: 0.02 % of applied compound dose
Recovered on parafilm and in washes [1]: 0.003 % of applied compound dose
recovery at 8 h, 1 % w/v [1]: 93.1 ± 1.2%
release of IL-8 (IL-8): slight elevation; also recorded: marginal release
sensitizing potential (DPRA) [2]: moderate sensitizers
release of IL-1α (IL-1α): slight elevation; also recorded: marginal release
